# pIC50: −log10 of the molar value.
# Target: T1, Nav1.7 (or SCN9A) channel; HEK cells stably transfected with hSCN9A (Homo sapiens, UniProt Q15858)
# T1 construct: expressed in transfected cells
# Test: Nav1.7 block, PatchXpress 7000 automated whole-cell voltage clamp, estimated IC50 (EIC50)
# Format: cell-based
# Conditions: PatchXpress platform; hSCN9A HEK cells held at V1/2 of inactivation; estimated IC50
# T1 sequence (Q15858 whole entry): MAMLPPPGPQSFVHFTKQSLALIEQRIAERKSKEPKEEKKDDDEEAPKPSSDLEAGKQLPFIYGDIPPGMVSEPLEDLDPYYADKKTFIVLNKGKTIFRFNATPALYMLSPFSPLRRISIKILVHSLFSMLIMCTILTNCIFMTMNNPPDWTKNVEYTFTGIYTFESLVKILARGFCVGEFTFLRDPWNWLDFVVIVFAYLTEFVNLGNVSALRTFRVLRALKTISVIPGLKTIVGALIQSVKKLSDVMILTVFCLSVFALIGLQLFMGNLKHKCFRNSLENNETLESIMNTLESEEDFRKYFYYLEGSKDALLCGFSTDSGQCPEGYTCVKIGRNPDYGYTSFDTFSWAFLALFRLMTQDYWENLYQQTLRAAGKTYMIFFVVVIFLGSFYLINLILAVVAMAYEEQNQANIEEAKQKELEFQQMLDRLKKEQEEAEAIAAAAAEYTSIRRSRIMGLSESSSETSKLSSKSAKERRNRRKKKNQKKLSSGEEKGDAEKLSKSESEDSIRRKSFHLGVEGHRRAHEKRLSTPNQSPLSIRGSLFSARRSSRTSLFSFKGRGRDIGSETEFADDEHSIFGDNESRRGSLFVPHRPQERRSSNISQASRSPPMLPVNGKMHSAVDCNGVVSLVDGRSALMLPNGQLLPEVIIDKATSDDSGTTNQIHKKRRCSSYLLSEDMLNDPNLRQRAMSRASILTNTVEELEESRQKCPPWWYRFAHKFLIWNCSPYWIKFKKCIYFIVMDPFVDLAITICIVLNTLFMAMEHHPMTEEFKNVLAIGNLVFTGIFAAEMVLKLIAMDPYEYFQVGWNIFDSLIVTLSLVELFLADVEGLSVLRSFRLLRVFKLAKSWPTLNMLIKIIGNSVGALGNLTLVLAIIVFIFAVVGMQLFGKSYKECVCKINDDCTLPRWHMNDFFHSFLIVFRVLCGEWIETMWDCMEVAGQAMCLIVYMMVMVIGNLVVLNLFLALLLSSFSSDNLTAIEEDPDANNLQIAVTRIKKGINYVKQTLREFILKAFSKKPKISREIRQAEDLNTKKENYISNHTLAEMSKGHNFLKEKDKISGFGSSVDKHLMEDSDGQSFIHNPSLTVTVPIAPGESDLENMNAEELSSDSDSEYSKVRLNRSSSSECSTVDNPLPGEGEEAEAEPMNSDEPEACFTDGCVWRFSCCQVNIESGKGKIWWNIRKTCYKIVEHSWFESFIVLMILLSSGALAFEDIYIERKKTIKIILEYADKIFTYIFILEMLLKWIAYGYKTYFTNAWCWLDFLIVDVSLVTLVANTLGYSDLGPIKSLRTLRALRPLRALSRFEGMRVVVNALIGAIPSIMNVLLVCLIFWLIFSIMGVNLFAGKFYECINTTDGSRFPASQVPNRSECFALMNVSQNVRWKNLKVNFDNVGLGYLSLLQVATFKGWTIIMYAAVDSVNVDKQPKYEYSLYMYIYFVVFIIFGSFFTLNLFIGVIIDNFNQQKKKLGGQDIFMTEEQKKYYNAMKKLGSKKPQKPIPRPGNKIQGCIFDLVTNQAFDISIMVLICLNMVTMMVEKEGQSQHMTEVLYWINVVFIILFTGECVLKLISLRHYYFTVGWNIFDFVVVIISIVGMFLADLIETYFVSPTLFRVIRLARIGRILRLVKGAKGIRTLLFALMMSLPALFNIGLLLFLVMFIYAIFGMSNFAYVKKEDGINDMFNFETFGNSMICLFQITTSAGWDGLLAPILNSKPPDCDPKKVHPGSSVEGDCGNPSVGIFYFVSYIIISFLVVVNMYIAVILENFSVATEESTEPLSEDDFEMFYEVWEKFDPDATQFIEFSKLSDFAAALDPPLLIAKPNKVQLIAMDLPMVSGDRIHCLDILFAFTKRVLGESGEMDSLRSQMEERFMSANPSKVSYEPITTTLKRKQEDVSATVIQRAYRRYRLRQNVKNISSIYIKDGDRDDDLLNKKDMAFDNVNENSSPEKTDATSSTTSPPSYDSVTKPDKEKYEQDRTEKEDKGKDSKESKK
row,SMILES,pIC50
1,"Cc1ccc(Oc2ccc(S(=O)(=O)Nc3nccs3)cc2F)c(-c2ccnn2C)c1 [Example 222, 3-fluoro-4-(4-methyl-2-(1-methyl-1H-pyrazol-5-yl)phenoxy)-N-(thiazol-2-yl)benzenesulfonamide]",7.22
2,"Cc1ccc(Oc2ccc(S(=O)(=O)Nc3nccs3)cc2F)c(-c2c(C)cnn2C(C)(C)C)c1 [Example 223, 4-(2-(1-tert-butyl-4-methyl-1H-pyrazol-5-yl)-4-methylphenoxy)-3-fluoro-N-(thiazol-2-yl)benzenesulfonamide]",5.82
3,"Cc1ccc(Oc2ccc(S(=O)(=O)Nc3nccs3)cc2F)c(-c2[nH]ncc2C)c1 [Example 224, 3-fluoro-4-(4-methyl-2-(4-methyl-1H-pyrazol-5-yl)phenoxy)-N-(thiazol-2-yl)benzenesulfonamide]",6.11
4,"O=S(=O)(Nc1nccs1)c1ccc(Oc2ccc(F)cc2-c2ccnn2CC(F)(F)F)c(F)c1 [Example 225, 3-fluoro-4-(4-fluoro-2-(1-(2,2,2-trifluoroethyl)-1H-pyrazol-5-yl)phenoxy)-N-(thiazol-2-yl)benzenesulfonamide]",6.37
5,"Cn1nccc1-c1cc(Br)ccc1Oc1ccc(S(=O)(=O)Nc2nccs2)cc1F [Example 226, 4-(4-bromo-2-(1-methyl-1H-pyrazol-5-yl)phenoxy)-3-fluoro-N-(thiazol-2-yl)benzenesulfonamide]",7.52
6,"O=S(=O)(Nc1nccs1)c1ccc(Oc2ccc(Cl)cc2-c2ccnn2-c2ccccc2)c(F)c1 [Example 227, 4-(4-chloro-2-(1-phenyl-1H-pyrazol-5-yl)phenoxy)-3-fluoro-N-(thiazol-2-yl)benzenesulfonamide]",7.52
7,"O=S(=O)(Nc1nccs1)c1ccc(Oc2cc(C(F)(F)F)nn2-c2cc(F)ccc2F)c(F)c1 [Example 228, 4-[2-(2,5-difluoro-phenyl)-5-trifluoromethyl-2H-pyrazol-3-yloxy]-3-fluoro-N-thiazol-2-yl-benzenesulfonamide]",6.24
8,"O=S(=O)(Nc1nccs1)c1ccc(Oc2cc(C(F)(F)F)nn2-c2ccccc2)c(F)c1 [Example 229, 3-fluoro-4-(2-phenyl-5-trifluoromethyl-2H-pyrazol-3-yloxy)-N-thiazol-2-yl-benzenesulfonamide]",6.92
9,"O=S(=O)(Nc1nccs1)c1ccc(Oc2cc(C(F)(F)F)nn2-c2ccccc2F)c(F)c1 [Example 230, 3-fluoro-4-[2-(2-fluoro-phenyl)-5-trifluoromethyl-2H-pyrazol-3-yloxy]-N-thiazol-2-yl-benzenesulfonamide]",6.15
10,"Cc1cc(Oc2ccc(S(=O)(=O)Nc3nccs3)cc2F)n(-c2ccccc2)n1 [Example 231, 3-fluoro-4-(5-methyl-2-phenyl-2H-pyrazol-3-yloxy)-N-thiazol-2-yl-benzenesulfonamide]",6.33
11,"O=S(=O)(Nc1nccs1)c1ccc(Oc2ccn(Cc3ccc(Cl)cc3)n2)c(F)c1 [Example 232, 4-[1-(4-chloro-benzyl)-1H-pyrazol-3-yloxy]-3-fluoro-N-thiazol-2-yl-benzenesulfonamide]",5.73
12,"Cn1cc(-c2ccccc2)c(Oc2ccc(S(=O)(=O)Nc3nccs3)cc2F)n1 [Example 233, 3-fluoro-4-(1-methyl-4-phenyl-1H-pyrazol-3-yloxy)-N-(thiazol-2-yl)benzenesulfonamide]",5.46
13,"COCc1ccc(Oc2ccc(S(=O)(=O)Nc3nccs3)cc2F)c(-c2ccnn2C)c1 [Example 234, 3-fluoro-4-(4-(methoxymethyl)-2-(1-methyl-1H-pyrazol-5-yl)phenoxy)-N-(thiazol-2-yl)benzenesulfonamide]",7.05
14,"O=S(=O)(Nc1nccs1)c1ccc(Oc2cnn(Cc3ccc(Cl)cc3)c2)c(F)c1 [Example 235, 4-(1-(4-chlorobenzyl)-1H-pyrazol-4-yloxy)-3-fluoro-N-(thiazol-2-yl)benzenesulfonamide]",6.12
15,"O=S(=O)(Nc1nccs1)c1ccc(Oc2ncncc2-c2ccccc2)c(F)c1 [Example 236, 3-fluoro-4-(5-phenylpyrimidin-4-yloxy)-N-(thiazol-2-yl)benzenesulfonamide]",4.86

# Reference: patent US8541588B2, “Sulfonamide derivatives” (Pfizer Limited, priority 2009, dated 2013)
